pIC50: −log10 of the molar value. “And” between values parts separate entries of the source, which are not always exact repeats. Identical values can stand only once. Like-named read-outs stand apart in the source and are kept apart here.
Legend:
5-HT1A receptor sites = experiment: Estimated occupancy by unlabeled ligand mass in the PET studies; type: in vivo, rhesus monkey; conditions: for occupancy at the 5-HT1A receptor sites: estimated from rat ED50; for occupancy of the unlabeled drug: comparable ED50 assumed
p-glycoprotein (Pgp) = conditions: cited from earlier work
[1] = ref Pike et al., 2000; Saigal et al., 2006; cited from earlier work
5-HT1A receptor [2] = molecular target: T1, 5-HT1A receptor (Macaca mulatta, UniProt F7GIU0); type: in vivo, rhesus monkey
T1 sequence (F7GIU0 1-421): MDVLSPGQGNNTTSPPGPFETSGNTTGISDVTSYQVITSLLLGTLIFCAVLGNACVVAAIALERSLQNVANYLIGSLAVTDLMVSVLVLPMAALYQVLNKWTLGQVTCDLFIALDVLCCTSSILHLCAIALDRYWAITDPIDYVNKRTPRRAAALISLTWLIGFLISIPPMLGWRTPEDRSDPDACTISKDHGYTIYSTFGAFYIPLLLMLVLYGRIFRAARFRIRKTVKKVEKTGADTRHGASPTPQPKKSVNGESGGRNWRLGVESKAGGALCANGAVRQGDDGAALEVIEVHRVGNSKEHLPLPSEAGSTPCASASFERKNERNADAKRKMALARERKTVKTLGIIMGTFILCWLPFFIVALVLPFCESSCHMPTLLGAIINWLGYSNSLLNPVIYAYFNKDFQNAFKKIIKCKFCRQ

[3] = Cerebellar kinetics by PET, single-tissue compartment model; conditions: for cerebellar clearance rate, slow component: exponential fit, t > 30 minutes
[4] = Arterial plasma kinetics of parent radiotracer; conditions: for fraction of radioactivity in the plasma due to parent radiotracer: 30 minutes after injection; for clearance rate from the arterial plasma: after period of rapid clearance (>30 minutes), bolus injection
5-HT1A receptor [5] = conditions: ref Saigal et al., 2006, cited from earlier work
[6] = rhesus monkey, previous measurements; ref Saigal et al., 2006; cited from earlier work

SMILES: COc1ccccc1N1CCN(CCN(C(=O)C2CCCCC2)c2ccccn2)CC1 [WAY100635]
- occupancy at the 5-HT1A receptor sites (5-HT1A receptor sites; M1, injected mass 1.0 nmol/kg): 18%
- occupancy at the 5-HT1A receptor sites (5-HT1A receptor sites; M4, injected mass 0.7 nmol/kg): 13%
- Pgp substrate (p-glycoprotein (Pgp); not told): Neither mefway nor WAY100635 have been found to be Pgp substrates

SMILES: COc1ccccc1N1CCN(CCN(C(=O)C2CCCCC2)c2ccccn2)CC1 [[C-11]WAY100635, [Carbonyl-C-11]N-(2-(1-(4-(2-Methoxyphenyl)-piperazinyl)ethyl)-N-pyridinyl) cyclohexanecarboxamide]
- logP [1]: 3.28
- BPND (5-HT1A receptor [2]; ACG, mean over subjects): 7.9±1.2 and 7.92
- BPND (5-HT1A receptor [2]; ACG, subject M1): 6.90
- BPND (5-HT1A receptor [2]; ACG, subject M3): 7.64
- BPND (5-HT1A receptor [2]; ACG, subject M4): 9.21
- BPND (5-HT1A receptor [2]; IC, mean over subjects): 4.7±1.0 and 4.65
- BPND (5-HT1A receptor [2]; IC, subject M1): 4.08
- BPND (5-HT1A receptor [2]; IC, subject M3): 4.11
- BPND (5-HT1A receptor [2]; IC, subject M4): 5.77
- BPND (5-HT1A receptor [2]; MTC, mean over subjects): 7.0±1.2 and 7.00
- BPND (5-HT1A receptor [2]; MTC, subject M1): 5.97
- BPND (5-HT1A receptor [2]; MTC, subject M3): 8.37
- BPND (5-HT1A receptor [2]; MTC, subject M4): 6.66
- BPND (5-HT1A receptor [2]; RN, mean over subjects): 3.3±0.7 and 3.27
- BPND (5-HT1A receptor [2]; RN, subject M1): 3.97
- BPND (5-HT1A receptor [2]; RN, subject M3): 2.66
- BPND (5-HT1A receptor [2]; RN, subject M4): 3.17
- DVND (nondisplaceable distribution volume, K1/k2) ([3]; cerebellum, mean over subjects): 2.62
- DVND (nondisplaceable distribution volume, K1/k2) ([3]; cerebellum, subject M1): 2.55
- DVND (nondisplaceable distribution volume, K1/k2) ([3]; cerebellum, subject M3): 2.62
- DVND (nondisplaceable distribution volume, K1/k2) ([3]; cerebellum, subject M4): 2.70
- cerebellar clearance rate, slow component [3]: 0.014 min⁻¹
- K1 in the cerebellum ([3]; mean over subjects): 0.74 mL/min/mL
- k2 in the cerebellum ([3]; mean over subjects): 0.28 min⁻¹
- K1 in the cerebellum ([3]; subject M1): 0.51 mL/min/mL
- k2 in the cerebellum ([3]; subject M1): 0.20 min⁻¹
- K1 in the cerebellum ([3]; subject M3): 1.10 mL/min/mL
- k2 in the cerebellum ([3]; subject M3): 0.42 min⁻¹
- K1 in the cerebellum ([3]; subject M4): 0.62 mL/min/mL
- k2 in the cerebellum ([3]; subject M4): 0.23 min⁻¹
- fraction of radioactivity in the plasma due to parent radiotracer [4]: 29%
- clearance rate from the arterial plasma [4]: 0.0069 min⁻¹

SMILES: COc1ccccc1N1CCN(CCN(C(=O)c2ccc(F)cc2)c2ccccn2)CC1 [[F-18]MPPF, 4-Fluoro-N-[2-[4-(2-methoxyphenyl)piperazin-1-yl]ethyl]-N-pyridin-2-ylbenzamide]
- BPND (5-HT1A receptor [2]; ACG, mean over subjects): 2.1±0.2 and 2.12
- BPND (5-HT1A receptor [2]; ACG, subject M1): 2.05
- BPND (5-HT1A receptor [2]; ACG, subject M2): 2.19
- BPND (5-HT1A receptor [2]; ACG, subject M3): 1.93
- BPND (5-HT1A receptor [2]; ACG, subject M4): 2.30
- time to plateau of target to CB ratio (pseudoequilibrium) (5-HT1A receptor [2]; IC (intermediate binding)): approximately 20 minutes
- BPND (5-HT1A receptor [2]; IC, mean over subjects): 1.2±0.1 and 1.15
- BPND (5-HT1A receptor [2]; IC, subject M1): 1.24
- BPND (5-HT1A receptor [2]; IC, subject M2): 1.11
- BPND (5-HT1A receptor [2]; IC, subject M3): 0.98
- BPND (5-HT1A receptor [2]; IC, subject M4): 1.28
- BPND (5-HT1A receptor [2]; MTC, mean over subjects): 3.1±0.4 and 3.14
- BPND (5-HT1A receptor [2]; MTC, subject M1): 3.01
- BPND (5-HT1A receptor [2]; MTC, subject M2): 3.67
- BPND (5-HT1A receptor [2]; MTC, subject M3): 2.99
- BPND (5-HT1A receptor [2]; MTC, subject M4): 2.88
- BPND (5-HT1A receptor [2]; RN, mean over subjects): 1.3±0.3 and 1.34
- BPND (5-HT1A receptor [2]; RN, subject M1): 1.49
- BPND (5-HT1A receptor [2]; RN, subject M2): 1.71
- BPND (5-HT1A receptor [2]; RN, subject M3): 0.98
- BPND (5-HT1A receptor [2]; RN, subject M4): 1.18
- time to plateau of target to CB ratio (pseudoequilibrium) (5-HT1A receptor [2]; high binding regions): approximately 30 minutes
- occupancy of the unlabeled drug (5-HT1A receptor sites): less than 3%
- cerebellar clearance rate, slow component [3]: 0.011 min⁻¹
- K1 in the cerebellum ([3]; mean over subjects): 1.00 mL/min/mL
- k2 in the cerebellum ([3]; mean over subjects): 0.34 min⁻¹
- Kp ([3]; rhesus monkey, in vivo, DVND (nondisplaceable distribution volume, K1/k2), cerebellum, subject M4): 2.89
- K1 in the cerebellum ([3]; subject M2): 0.90 mL/min/mL
- k2 in the cerebellum ([3]; subject M2): 0.29 min⁻¹
- K1 in the cerebellum ([3]; subject M3): 1.32 mL/min/mL
- k2 in the cerebellum ([3]; subject M3): 0.45 min⁻¹
- K1 in the cerebellum ([3]; subject M4): 0.78 mL/min/mL
- k2 in the cerebellum ([3]; subject M4): 0.27 min⁻¹
- fraction of radioactivity in the plasma due to parent radiotracer [4]: 28%
- clearance rate from the arterial plasma [4]: 0.0078 min⁻¹
- Pgp substrate (p-glycoprotein (Pgp); ref Passchier et al., 2000): substrate for p-glycoprotein (Pgp)

SMILES: COc1ccccc1N1CCN(CCN(C(=O)C2CCC(C[18F])CC2)c2ccccn2)CC1 (stereo not shown) [[F-18]mefway, N-{2-[4-(2-methoxyphenyl)piperazinyl]ethyl}-N-(2-pyridyl)-N-(4-[F-18]-fluoromethylcyclohexane)carboxamide]
- logP [1]: 2.62
- BPND (5-HT1A receptor [2]; ACG, mean over subjects): 7.2±1.2
- BPND (5-HT1A receptor [2]; ACG, mean over subjects, listed as [F-18]MEFWAY): 7.15
- BPND (5-HT1A receptor [2]; ACG, subject M1): 6.92
- BPND (5-HT1A receptor [2]; ACG, subject M2): 7.00
- BPND (5-HT1A receptor [2]; ACG, subject M3): 5.87
- BPND (5-HT1A receptor [2]; ACG, subject M4): 8.82
- BPND (5-HT1A receptor [2]; IC, mean over subjects): 4.2±0.6
- BPND (5-HT1A receptor [2]; IC, mean over subjects, listed as [F-18]MEFWAY): 4.16
- BPND (5-HT1A receptor [2]; IC, subject M1): 4.51
- BPND (5-HT1A receptor [2]; IC, subject M2): 3.57
- BPND (5-HT1A receptor [2]; IC, subject M3): 3.72
- BPND (5-HT1A receptor [2]; IC, subject M4): 4.83
- BPND (5-HT1A receptor [2]; MTC, mean over subjects): 7.4±0.6
- BPND (5-HT1A receptor [2]; MTC, mean over subjects, listed as [F-18]MEFWAY): 7.36
- BPND (5-HT1A receptor [2]; MTC, subject M1): 7.23
- BPND (5-HT1A receptor [2]; MTC, subject M2): 8.25
- BPND (5-HT1A receptor [2]; MTC, subject M3): 7.17
- BPND (5-HT1A receptor [2]; MTC, subject M4): 6.77
- plateau of target to CB ratio (5-HT1A receptor [2]; MTC, total time of acquisition): a plateau is not reached within the total time of acquisition
- BPND (5-HT1A receptor [2]; RN, mean over subjects): 3.7±0.6
- BPND (5-HT1A receptor [2]; RN, mean over subjects, listed as [F-18]MEFWAY): 3.69
- BPND (5-HT1A receptor [2]; RN, subject M1): 4.06
- BPND (5-HT1A receptor [2]; RN, subject M2): 4.00
- BPND (5-HT1A receptor [2]; RN, subject M3): 2.85
- BPND (5-HT1A receptor [2]; RN, subject M4): 3.84
- time to plateau of target to CB ratio (5-HT1A receptor [2]; high uptake regions, 2 hour scanning period): > 2 h
- occupancy of the unlabeled drug (5-HT1A receptor sites): less than 3%
- displacement of binding (5-HT1A receptor [5]; competition of 10 μM of WAY100635): almost completely displaced
- DVND (nondisplaceable distribution volume, K1/k2) ([3]; cerebellum, mean over subjects): 4.02
- DVND (nondisplaceable distribution volume, K1/k2) ([3]; cerebellum, subject M1): 4.92
- DVND (nondisplaceable distribution volume, K1/k2) ([3]; cerebellum, subject M2): 3.53
- DVND (nondisplaceable distribution volume, K1/k2) ([3]; cerebellum, subject M3): 4.22
- DVND (nondisplaceable distribution volume, K1/k2) ([3]; cerebellum, subject M4): 3.41
- cerebellar clearance rate, slow component [3]: 0.010 min⁻¹
- K1 in the cerebellum ([3]; mean over subjects): 1.02 mL/min/mL
- k2 in the cerebellum ([3]; mean over subjects): 0.27 min⁻¹
- K1 in the cerebellum ([3]; subject M1): 0.59 mL/min/mL
- k2 in the cerebellum ([3]; subject M1): 0.12 min⁻¹
- K1 in the cerebellum ([3]; subject M2): 1.34 mL/min/mL
- k2 in the cerebellum ([3]; subject M2): 0.38 min⁻¹
- K1 in the cerebellum ([3]; subject M3): 1.14 mL/min/mL
- k2 in the cerebellum ([3]; subject M3): 0.27 min⁻¹
- K1 in the cerebellum ([3]; subject M4): 0.99 mL/min/mL
- k2 in the cerebellum ([3]; subject M4): 0.29 min⁻¹
- fraction of radioactivity in the plasma due to parent radiotracer [4]: 19%
- clearance rate from the arterial plasma [4]: 0.0031 min⁻¹
- fraction of radiolabeled lipophilic metabolites [6]: < 10%

SMILES: COc1ccccc1N1CCN(CCN(C(=O)C2CCC(CF)CC2)c2ccccn2)CC1 (stereo not shown) [mefway]
- pIC50 (5-HT1A receptor [5]; against [F-18]mefway): 7.59
- Pgp substrate (p-glycoprotein (Pgp); no reference given): Neither mefway nor WAY100635 have been found to be Pgp substrates

— paper PMC3080024 (Synapse (New York, N.Y.), 2010)
